Like-named read-outs stand apart in the source and are kept apart here.
Tests used:
polyamine transporter [1] = conditions: ZR-75-1 cells; data annotated a (Lessard et al. 1995); read-out: Km or Ki, spermidine transport; cited from earlier work
ZR-75-1 cells = experiment: Reversal of DFMO-induced growth inhibition by exogenous spermidine; assay type: cell-based, human; conditions: 1 mM DFMO
Protocol: For growth studies, ZR-75-1 cells were cultured in MEZR medium or in phenol red-free RPMI 1640 supplemented with 2 mM L-glutamine, 1 mM sodium pyruvate, 15 mM Hepes, antibiotics, 1 nM 17β-estradiol, 0.5 μg of bovine insulin per ml and 5% (v/v) charcoal-treated fetal bovine serum (SD medium), as indicated in the text. When polyamines or polyamine analogs were added to serum-containing media, 1 mM aminoguanidine was added to inhibit bovine serum amine oxidase (BSAO) activity (Morgan, D. M. L. 1989, in The Physiology of Polyamines (Bachrach, U., and Heimer, Y. M. eds) Vol. I, pp. 203-229, CRC Press, Boca Raton). The effect of the transport inhibitors on cell growth was measured by incubating ZR-75-1 cells for 11 days in medium supplemented with antagonist, polyamines and/or 1 mM DFMO as indicated, followed by colorimetric determination of DNA content with 3,4-diaminobenzoic acid (Simard, J., Dauvois, S., Haagensen, D. E., Lėvesque C., Mėrand, Y. and Labriė, F. 1990. Endocrinology 126: 3223-3231).
This possibility was assessed by comparing the ability of DESC to prevent the reversal of DFMO-induced growth inhibition by increasing concentrations of exogenous spermidine.

polyamine transporter [2] = conditions: ZR-75-1 cells; data annotated a (Lessard et al. 1995); read-out: Km or Ki, putrescine transport; cited from earlier work
polyamine transporter [3] = conditions: ZR-75-1 cells; data annotated a (Lessard et al. 1995); read-out: Km or Ki, spermine transport; cited from earlier work

NCCCCNCCCN [Spermidine, N-3[aminopropyl]-1,4-diaminobutane]
Ki (polyamine transporter [1]): 490 ± 150 nM | Spermidine concentration completely reversing DFMO-induced growth inhibition (ZR-75-1 cells; 11 days): 0.3 µM | activity at 0.1 µM (ZR-75-1 cells; Homo sapiens, ZR-75-1, 0.1 μM spermidine, read-out: Growth of DFMO-treated cells restored, % of control value): 78% | Ki (polyamine transporter [2]): 230 ± 50 nM | Ki (polyamine transporter [3]): 370 ± 90 nM

Source: patent publication US6949679B1, “Polyamine transport inhibitors” (Universite Laval, priority 1998, dated 2005)
